Read-outs that look alike come from different tables or passages of the source.
Experiments:
PI4K2A = target: T1, PI4K2A (Homo sapiens, UniProt Q9BTU6); assay: ADP-Glo lipid kinase assay, PI4K2A; assay type: biochemical; details: 10 µM compound
T1 construct: purchased Carna Biosciences Inc; Invitrogen Corporation

PIK3CD/ PIK3R1 = target: T2, PIK3CD/ PIK3R1 (Homo sapiens, UniProt O00329); assay: ADP-Glo lipid kinase assay, PIK3CD/PIK3R1; assay type: biochemical; details: 10 µM compound
T2 construct: purchased Carna Biosciences Inc; Invitrogen Corporation

MCF7 cells = assay: Western blotting / immunofluorescence, MCF7; assay type: cell-based, human
Method: Cells were exposed to MMV652103 or vehicle for 24 and 48 h. Cell lysates were prepared, and western blotting performed as previously described (Abrahams et al., 2008[1]). Primary antibodies were: PARP1/2 (sc-7150, 1:1000), p53 (sc-126, 1:1000), p21 (sc-756, 1:1000), cyclin B1 (H-433) (sc-752, 1:500) from Santa Cruz (California, USA), phospho-H2AX (#2577, 1:1000), phospho-p38 MAP Kinase (#9211, 1:1000), LC3 (#2775, 1:1000), caspase-7 (#9492, 1:1000), caspase-8 (#9746, 1:1000), caspase-9 (#9502S, 1:1000), from Cell Signaling (Boston, MA, USA), PUMA (ab9643, 1:1000) (AbCam, Cambridge, MA, USA) and p38 (M0800, 1:5000) from Sigma (St. Louis, MO, USA). Total p38 was used as a loading control because although its activity is modulated by phosphorylation, its total levels remain unaltered in response to stimuli (Raingeaud et al., 1995[68]). Densitometry readings were obtained using ImageJ v1.50i58 and protein expression levels were represented as a ratio of protein of interest/p38 loading control normalized to the vehicle treated control sample where appropriate. All blots are representative of at least three independent experiments.
Cells on glass coverslips were treated with either MMV652103 or vehicle for 24 and 48 h and processed for immunofluorescence with antibodies against phospho H2A.X (#2577) (1:500) or LC3B (#2775) (1:200) (Cell Signaling Technology) as previously described (Bleloch et al., 2019[8]). Cells were imaged using confocal microscopy (Carl Zeiss LSM 880 with Fast Airyscan module confocal (Oberkochen, Germany)). Multiple z layers were acquired with […] step width. Images were processed using ZEN 2012 imaging software (Carl Zeiss) and maximum intensity projections were generated. For quantification, mean fluorescence was measured from at least 20 fields of view per treatment condition and pooled from three independent replicates.

PI4KB = target: T3, PI4KB (Homo sapiens, UniProt Q9UBF8); assay: ADP-Glo lipid kinase assay, PI4KB; assay type: biochemical
T3 construct: purchased Carna Biosciences Inc; Invitrogen Corporation
Method: A non-radiometric kinase assay (ADP-Glo™ Assay, Promega, Madison, Wi, USA) was used for measuring the kinase activity of the 2 lipid kinases, phosphatidylinositol 4-kinase beta (encoded by the PI4KB gene) and phosphatidylinositol-4-Phosphate 3-Kinase Catalytic Subunit Type 2 Gamma (encoded by the PIK3C2G gene). All kinase assays were performed in 96-well half-area microtiter plates from Greiner Bio-One (Frickenhausen, Germany) in 25 µl reaction volumes. […] In addition, the assay for PI4KB contained 3 mM MnCl2 and the assay for PIK3C2G contained 3 mM MgCl2. Kinases from external vendors (Carna Biosciences Inc.; Invitrogen Corporation; Millipore Corporation) were expressed, purified and quality-controlled by virtue of the vendors readings. The reaction cocktails were incubated at 30 °C for 60 min. The reaction was stopped with 25 µl ADP-Glo reagent per well. Plates were incubated for 40 min at RT, followed by the addition of 50 µl kinase detection reagent per well and incubation for 60 min at RT. Signal was determined with a microplate luminescence reader (Victor, Perkin Elmer). […]
For each kinase, the median value of the counts per second (cps) of three wells with complete reaction cocktails, but without kinase, was defined as "low control" (n=3). […] The residual activity (in %) for each well of each row of a particular plate was calculated by using the following formula: […]

[1] = tested on: BT474 (HER2+) breast cancer cells; assay: MTT cytotoxicity assay, BT474; assay type: cell-based; details: Homo sapiens, BT-474
Method: Human estrogen-receptor positive (ER+) breast adenocarcinoma cell lines, MCF7 and T47D, were maintained in Roswell Park Memorial Institute-1640 medium (Sigma Aldrich, Missouri, USA) and the human epidermal growth factor receptor 2 positive (HER2+) BT474, and triple negative (TNBC) MDA-MB-231 and MDA-MB-468 cells were maintained in Dulbecco's Modified Eagle's Medium (DMEM) (Sigma Aldrich, Missouri, USA). […]
Cells (3.5×10^3-6×10^3 / well) were seeded in 96-well plates and treated at a 60-70 % confluence with a range of concentrations (0-10 μM) of test compounds or vehicle for 48 h. Cell viability was measured using the 3-(4,5-dimethylthiazol-2-yl)-2,5-diphenyl-trazolium bromide (MTT) assay (11465007001; Sigma Aldrich) according to the manufacturer's instructions. Mean cell viability was calculated as a percentage of the mean vehicle control. A minimum of three independent experiments in quadruplicate were performed from which the IC50 was determined from sigmoidal plots using GraphPad Prism version 6.0 (GraphPad Software, California, USA). The selectivity index (SI) was determined by dividing the IC50 of a non-malignant cell line by the IC50 of a cancer cell line.

T3 sequence (Q9UBF8 whole entry): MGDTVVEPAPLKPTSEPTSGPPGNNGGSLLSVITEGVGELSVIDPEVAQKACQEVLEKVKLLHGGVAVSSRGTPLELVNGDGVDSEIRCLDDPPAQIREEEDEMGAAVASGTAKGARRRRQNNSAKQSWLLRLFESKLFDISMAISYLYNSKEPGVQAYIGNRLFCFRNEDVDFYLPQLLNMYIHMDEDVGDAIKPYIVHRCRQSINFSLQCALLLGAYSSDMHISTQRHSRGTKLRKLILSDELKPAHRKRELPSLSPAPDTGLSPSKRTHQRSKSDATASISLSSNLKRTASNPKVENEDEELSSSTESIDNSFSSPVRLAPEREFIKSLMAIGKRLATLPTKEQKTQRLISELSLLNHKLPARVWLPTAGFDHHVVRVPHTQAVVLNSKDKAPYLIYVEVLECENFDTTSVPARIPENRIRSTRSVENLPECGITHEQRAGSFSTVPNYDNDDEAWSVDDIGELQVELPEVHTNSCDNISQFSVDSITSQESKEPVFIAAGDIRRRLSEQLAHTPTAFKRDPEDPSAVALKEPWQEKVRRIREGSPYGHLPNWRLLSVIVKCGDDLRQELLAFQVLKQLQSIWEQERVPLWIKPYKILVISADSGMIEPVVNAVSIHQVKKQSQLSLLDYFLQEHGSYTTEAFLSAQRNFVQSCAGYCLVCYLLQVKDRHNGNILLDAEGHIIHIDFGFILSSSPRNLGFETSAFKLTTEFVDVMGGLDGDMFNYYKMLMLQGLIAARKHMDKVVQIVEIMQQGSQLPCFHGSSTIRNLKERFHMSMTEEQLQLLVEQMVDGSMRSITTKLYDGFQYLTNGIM
T1 sequence (Q9BTU6 whole entry): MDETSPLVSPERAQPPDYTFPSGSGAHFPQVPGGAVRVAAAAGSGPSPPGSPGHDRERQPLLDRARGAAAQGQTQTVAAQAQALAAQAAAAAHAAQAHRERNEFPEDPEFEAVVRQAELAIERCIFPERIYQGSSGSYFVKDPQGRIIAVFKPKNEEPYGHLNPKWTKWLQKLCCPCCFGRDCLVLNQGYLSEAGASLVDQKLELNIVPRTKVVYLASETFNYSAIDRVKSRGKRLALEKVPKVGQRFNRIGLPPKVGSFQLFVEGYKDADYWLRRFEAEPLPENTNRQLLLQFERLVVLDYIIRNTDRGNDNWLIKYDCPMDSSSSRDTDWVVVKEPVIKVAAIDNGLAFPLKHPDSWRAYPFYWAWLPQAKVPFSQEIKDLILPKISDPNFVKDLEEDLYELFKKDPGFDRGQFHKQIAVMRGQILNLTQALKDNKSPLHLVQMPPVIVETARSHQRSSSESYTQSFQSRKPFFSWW
T2 sequence (O00329 whole entry): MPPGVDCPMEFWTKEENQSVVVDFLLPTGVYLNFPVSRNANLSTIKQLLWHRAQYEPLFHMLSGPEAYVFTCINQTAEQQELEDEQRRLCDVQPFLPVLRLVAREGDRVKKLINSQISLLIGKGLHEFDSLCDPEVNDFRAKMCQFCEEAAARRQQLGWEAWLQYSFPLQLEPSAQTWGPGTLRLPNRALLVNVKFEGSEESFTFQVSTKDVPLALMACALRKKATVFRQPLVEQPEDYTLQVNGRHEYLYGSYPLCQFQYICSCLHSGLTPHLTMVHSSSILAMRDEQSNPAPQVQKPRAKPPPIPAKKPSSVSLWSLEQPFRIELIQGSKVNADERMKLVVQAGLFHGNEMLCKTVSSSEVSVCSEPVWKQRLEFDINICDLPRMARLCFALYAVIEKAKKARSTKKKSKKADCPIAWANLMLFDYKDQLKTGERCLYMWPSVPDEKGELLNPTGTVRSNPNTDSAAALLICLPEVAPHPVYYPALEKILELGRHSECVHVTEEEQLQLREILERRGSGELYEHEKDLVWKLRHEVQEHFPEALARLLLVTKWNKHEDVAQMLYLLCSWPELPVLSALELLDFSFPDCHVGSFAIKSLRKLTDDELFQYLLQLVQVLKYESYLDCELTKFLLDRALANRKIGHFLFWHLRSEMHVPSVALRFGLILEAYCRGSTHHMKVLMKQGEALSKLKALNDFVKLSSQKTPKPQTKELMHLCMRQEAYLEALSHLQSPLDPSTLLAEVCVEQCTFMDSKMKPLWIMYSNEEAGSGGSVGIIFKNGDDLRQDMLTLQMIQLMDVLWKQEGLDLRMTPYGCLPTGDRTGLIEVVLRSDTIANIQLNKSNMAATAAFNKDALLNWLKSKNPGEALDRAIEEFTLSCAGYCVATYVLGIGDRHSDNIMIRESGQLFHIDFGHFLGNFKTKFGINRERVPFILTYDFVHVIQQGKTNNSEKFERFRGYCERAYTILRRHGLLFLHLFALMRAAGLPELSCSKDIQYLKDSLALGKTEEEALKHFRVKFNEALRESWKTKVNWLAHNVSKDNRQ
T2 sequence (P27986 whole entry partner): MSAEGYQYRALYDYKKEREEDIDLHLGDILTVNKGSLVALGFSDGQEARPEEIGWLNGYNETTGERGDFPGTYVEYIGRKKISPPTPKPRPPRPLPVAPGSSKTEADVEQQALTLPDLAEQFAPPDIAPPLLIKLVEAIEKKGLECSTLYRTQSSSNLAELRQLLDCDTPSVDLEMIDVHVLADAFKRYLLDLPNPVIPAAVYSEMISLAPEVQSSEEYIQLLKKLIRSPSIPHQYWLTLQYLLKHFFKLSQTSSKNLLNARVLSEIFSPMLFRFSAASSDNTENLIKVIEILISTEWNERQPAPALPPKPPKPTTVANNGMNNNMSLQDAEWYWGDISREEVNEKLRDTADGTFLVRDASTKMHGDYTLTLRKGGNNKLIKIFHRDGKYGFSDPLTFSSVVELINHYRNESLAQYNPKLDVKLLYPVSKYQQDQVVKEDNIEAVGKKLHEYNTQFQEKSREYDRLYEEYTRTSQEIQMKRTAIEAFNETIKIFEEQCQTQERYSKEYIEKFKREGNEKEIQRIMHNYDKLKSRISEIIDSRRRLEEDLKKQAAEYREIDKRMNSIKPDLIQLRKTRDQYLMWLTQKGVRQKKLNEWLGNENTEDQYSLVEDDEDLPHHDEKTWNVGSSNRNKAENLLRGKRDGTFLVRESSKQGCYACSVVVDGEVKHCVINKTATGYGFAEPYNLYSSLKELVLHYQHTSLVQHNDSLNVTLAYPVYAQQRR

Structure (SMILES): CS(=O)(=O)c1ccc(-c2cnc3ccc(-c4cccc(S(C)(=O)=O)c4)nn23)cc1 [MMV652103]
- remaining activity at 10 µM (PI4K2A): 42%
- remaining activity at 10 µM (PIK3CD/ PIK3R1): 3%
- LC3 to LC3II conversion (MCF7 cells; western blot): led to the conversion of LC3 to LC3II
- cyclin A and cyclin B1 levels (MCF7 cells; western blot): reduced
- levels of p53, MCF7 (MCF7 cells; western blot): dose- and time-dependent increase
- levels of phosphorylated p38, MCF7 (MCF7 cells; western blot): increased
- p21 levels, MCF7 (MCF7 cells; western blot): increased
- levels of γH2AX, MCF7 (MCF7 cells; ½ IC50 and IC50, 24 and 48 h): dose- and time-dependent increase
- levels of PUMA, cleaved caspase-8, caspase-9, caspase-7 and PARP (MCF7 cells; ½ IC50 and IC50, western blot): increased levels
- remaining activity at 10 µM (PI4KB; 10 µM compound): 23%
- IC50 (PI4KB; ADP-Glo): 1.7 µM
- IC50 ([1]; Fig 2C summary, MTT 48 h, read-out: IC50 ± SEM BT474): 7.3 ± 1.05 µM
- IC50 ([1]; MTT, 48 h, read-out: IC50 BT474): 7.3 µM

Reference: paper PMC9149975, “The diaryl-imidazopyridazine anti-plasmodial compound, MMV652103, exhibits anti-breast cancer activity” (EXCLI Journal, 2022)
